From patent publication US20250368639A1, “SOLID FORMS OF A COMPOUND FOR TREATING OR PREVENTING HYPERURICEMIA OR GOUT” (ATOM THERAPEUTICS CO., LTD, priority 2022, published 2025)
Converted amounts (≈) assume the structure as drawn. “Also recorded” adds a separate entry of the source. Like-named read-outs stand apart in the source and are kept apart here.

What was measured:
[1] = Dynamic vapor sorption/desorption (DVS); assay type: physicochemical
[2] = Solubility in water, buffers and bio-relevant media (37° C., 24 h shaking, HPLC); assay type: physicochemical; details: 37° C., 24 h
[3] = Single-dose pharmacokinetic study, oral and intravenous, in SD rats; assay type: in vivo, SD rat; details: for AUC(0-inf): read-out: AUCINF—pred; for half-life: read-out: HL_Lambda_z (T1/2) (converted); for Vd/F: read-out: Vz—F—pred;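 for AUClast: AUClast in h·ng/mL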
Method: Form 1, Form 2, and Form 5D were each evaluated via a single-dose pharmacokinetic study following oral and intravenous administration in SD rats. […] Form 1, Form 2, and Form 5Dwere evaluated by rat pharmacokinetics study.
Male SD rat was purchased from Shanghai Sippr B&K Laboratory Animals Co., Ltd. The weight was 180 g˜200 g.
20% HP-β-CD was prepared from dissolving20 g of HP-β-CD (from Sigma) in 100 mL purified water. 0.5% CMC-Na was prepared from dissolving 1 g of CMC-Na (from Aladdin) in 200 mL purified water. The solutions were stored at 2-8 degree.
Group 1:4.95 mg (equivalent to 4.50 mg of anhydrous free base) of Form 1 was weighed out into a 20 ml bottle, and totally dissolved by 0.225 mL DMSO by sonication. After that, 4.275 mL of 20% HP-β-CD was added, mixed well by sonication. Finally, the pH value was adjusted to 7.0 by sodium hydroxide solution. The clear solution was obtained, and the concentration was 1 mg/mL.
Group 2:10.08 mg (equivalent to 9.164 mg of anhydrous free base) of Form 1 was weighed out into a 20 ml bottle, and then 9.164 mL of 0.5% CMC-Na was added. A white suspension was formed after sonicated by ultrasonic cell disruptor, and the concentration was 1 mg/mL.
Group 3:9.47 mg of Form 2 was weighed out into a 20 ml bottle, and then 9.470 mL of 0.5% CMC-Na was added. After sonicated, it was mixed well by homogenizer for 2 minutes. Finally, a white suspension was formed, and the concentration was 1 mg/mL.
Group 4:9.80 mg (equivalent to 8.909 mg of free base) of Form 5Dwas weighed out into a 20 mL bottle, and then 8.909 mL of 0.5% CMC-Na was added. After sonicated, it was mixed well by homogenizer for 2 minutes. Finally, a white suspension was formed, and the concentration was 1 mg/mL.
Group 5:1.94 mg (equivalent to 1.763 mg of anhydrous free base) of Form 1 was weighed out into a 20 ml bottle, and totally dissolved by 0.088 mL DMSO by sonication. After that, 1.675 mL of 20% HP-β-CD was added, mixed well by sonication. Finally, the pH value was adjusted to 7.0 by sodium hydroxide solution. The clear solution was obtained, and the concentration was 0.2 mg/mL.
The dose of intravenous administration was 1 mg/kg and 5 mg/kg, respectively. The oral dose was 10 mg/kg. Animals were fasted overnight before drug administration. After the drug administration, the rats were fed at the 4 hours.
About 150˜200 μL of blood was collected at the initial time (only intravenous), and at 0.25, 0.5, 1, 2, 4, 6, 8 and 24 h by jugular venipuncture blooding method. EDTA-K2 was selected as anticoagulant. Blood samples were centrifuged within one hour at 6000 rpm for 8 minutes (placed on wet ice before centrifugation). The supernatant was stored at −20° C. for LC-MS/MS analysis.
The computer program Microsoft Office Excel 2007 (Microsoft, USA) was used to process data and graphics. The pharmacokinetic parameters were calculated by WinNolin 6.4 software.

[4] = male SD rats, oral 10 mg/kg, Average (Table 10)
[5] = male, SD, rat, plasma, po, 10 mg/kg, male SD rats, oral 10 mg/kg, Average (Table 10)
[6] = male, SD, rat, plasma, po, 10 mg/kg, male SD rats, oral 10 mg/kg, individual rats 301/302/303 (c1/c2/c3)

For CCc1nc2ccccn2c1C(=O)c1cc(Br)c(O)c(C#N)c1 [Form 2, 3-bromo-5-[(2-ethylimidazo[1,2-a]pyridin-3-yl)carbonyl]-2-hydroxybenzonitrile], the “DVS (80% RH)” value ([1]; 25° C., 80% RH) was 0.40%, the “Water remaining within the sample (DVS desorption)” value ([1]; relative humidity decreased back to 0%) was “about 3.4%” and the “Hygroscopicity (DVS)” value ([1]; relative humidity less than 80%) was “low hygroscopicity”. The “Crystal form after DVS analysis (XRPD)” value ([1]; sample following DVS analysis) was “converted into Form 1”, the “Water absorbed (DVS)” value ([1]; when relative humidity reached 85% RH) was “about 3.8%” and the Solubility ([2]; 0.1N HCl) was 3.8 µg/mL (≈ 10.3 µM). For the same compound, the “Highest concentration among the media” value [2] was “around 40 μg/ml”, the “Solubility in the buffer solution and bio-relevant medium” value [2] was “low solubilities” and the Solubility ([2]; FaSSIF) was 41.8 µg/mL (≈ 113 µM). For the same compound, the Solubility ([2]; FeSSIF) was 2.8 µg/mL (≈ 7.56 µM), the Solubility ([2]; SGF) was 3.0 µg/mL (≈ 8.1 µM) and the Solubility ([2]; Water) was 20.0 µg/mL (≈ 54 µM). For the same compound, the Solubility ([2]; pH 4.5 acetate buffer) was under 1 µg/mL, the Solubility ([2]; pH 6.8 phosphate buffer) was 24.1 µg/mL (≈ 65.1 µM) and the “Exposure and bioavailability (words, comparison)” value ([3]; SD rats, oral administration 10 mg/kg, 10 mg/kg) was “higher dose exposure and bio-availability than Form 1; also recorded: higher exposure (AUC0-1) and better bioavailability than Form 1; also recorded: approximately the same as Form 5D; also recorded: sufficiently high bioavailability”. For the same compound, the AUClast [3, 4] was 88482.4 ng·h/mL, the “Cl—F—pred” value [3, 4] was 2 mL/min/kg and the F ([3]; male SD rats, oral 10 mg/kg, calculated by intravenous administration of 1 mg/kg, Average (Table 10)) was 50.98%. The Cmax [3, 5] was 7950 ng/mL, the MRT last [3, 5] was 6.12 h and the Tmax [3, 5] was 4 h. The AUC(0-inf) [3, 5] was 89100 ng·h/mL, the half-life [3, 5] was 3.08 h and the Vd/F [3, 5] was 0.52 L/kg. The AUC(0-t) [3, 6] was 108000 ng·h/mL, the Cmax [3, 6] was 8490 ng/mL and the MRT last [3, 6] was 6.15 h. The Tmax [3, 6] was 4 h, the AUC(0-inf) [3, 6] was 92400 ng·h/mL and the half-life [3, 6] was 3.32 h. It also gave a Vd/F [3, 6] of 0.45 L/kg.
